The record followed here is article PMC7180948, “New Insights into 4-Anilinoquinazolines as Inhibitors of Cardiac Troponin I–Interacting Kinase (TNNi3K)” (Molecules, 2020).

For the assay, the target named is T1, cardiac troponin I–interacting kinase (TNNi3K) (Homo sapiens, UniProt Q59H18).
T1 sequence (Q59H18 1-835): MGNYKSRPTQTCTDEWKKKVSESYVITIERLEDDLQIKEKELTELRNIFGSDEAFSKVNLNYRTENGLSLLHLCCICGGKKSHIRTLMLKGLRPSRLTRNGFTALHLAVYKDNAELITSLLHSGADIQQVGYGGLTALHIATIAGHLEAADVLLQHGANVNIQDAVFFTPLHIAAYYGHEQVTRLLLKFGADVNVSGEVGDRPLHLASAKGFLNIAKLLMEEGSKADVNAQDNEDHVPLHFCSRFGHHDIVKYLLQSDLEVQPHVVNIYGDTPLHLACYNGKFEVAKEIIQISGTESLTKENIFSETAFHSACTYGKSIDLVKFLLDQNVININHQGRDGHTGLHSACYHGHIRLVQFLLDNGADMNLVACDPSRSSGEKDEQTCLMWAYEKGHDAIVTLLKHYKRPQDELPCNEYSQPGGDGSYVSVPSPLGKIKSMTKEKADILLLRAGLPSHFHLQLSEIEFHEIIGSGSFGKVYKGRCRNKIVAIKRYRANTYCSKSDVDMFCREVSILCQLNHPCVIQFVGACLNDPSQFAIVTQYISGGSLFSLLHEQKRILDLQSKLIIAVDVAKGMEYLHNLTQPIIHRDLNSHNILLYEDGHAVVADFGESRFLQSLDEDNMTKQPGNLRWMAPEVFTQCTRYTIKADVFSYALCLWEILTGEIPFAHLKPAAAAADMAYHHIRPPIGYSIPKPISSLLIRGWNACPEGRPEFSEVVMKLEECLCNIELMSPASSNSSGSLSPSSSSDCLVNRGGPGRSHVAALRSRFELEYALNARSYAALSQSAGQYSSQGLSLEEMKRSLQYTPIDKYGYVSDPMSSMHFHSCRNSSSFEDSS
The assay can be described thus: TNNi3K binding assay (Kd, n = […]).

Molecules are shown by their SMILES.

`COc1cc2ncnc(Nc3ccccc3N(C)C)c2cc1OC` [compound 20, N^1-(6,7-dimethoxyquinazolin-4-yl)-N^2,N^2-dimethylbenzene-1,2-diamine] had a Kd of 6200 nM. Take `CNS(=O)(=O)c1ccc(N(C)C)c(Nc2ncnc3ccc(OC)cc23)c1` [compound 16, 4-(dimethylamino)-3-((6-methoxyquinazolin-4-yl)amino)-N-methylbenzenesulfonamide]: the affinity, expressed as Kd, was 90 nM. Compared with the last compound, the Kd is about 69-fold lower. Regarding `CNS(=O)(=O)c1ccc(N(C)C)c(Nc2ncnc3cc(OC)ccc23)c1` [compound 17, 4-(dimethylamino)-3-((7-methoxyquinazolin-4-yl)amino)-N-methylbenzenesulfonamide], the Kd stood at 11 nM. For `CNS(=O)(=O)c1cccc(Nc2ncnc3cc(OC)c(OC)cc23)c1` [compound 2, 3-((6,7-dimethoxyquinazolin-4-yl)amino)-N-methylbenzenesulfonamide] the value was 120 nM.
